Experiments:
[1] = tested on: Human BEAS-2B bronchial epithelial cells; assay: BEAS-2B cold ischemia-reperfusion injury model: confluence by Incucyte imaging; assay type: cell-based; details: for confluence, mean percent difference compared to standard LPD alone: immediately upon reperfusion
Description: (§1) Human BEAS-2B bronchial epithelial cells were cultured until subconfluence in 96-well plates with standard media (DMEM+10% FBS). […] These parameters simulated the real-life environment of standard lung preservation.
(§2) This was followed by up to 48 h of warm reperfusion at 37° C. in regular cell culture media (at 5% CO2). Regular cell media was used as negative control for the simulated cold ischemia, and regular LPD was used as positive control. Upon switching to LPD, the four different itaconate derivatives in the three different concentrations were assessed and compared to regular LPD and standard media during cold static preservation. Confluence and apoptosis measurements (based on Caspase3/7 dye) were taken by serial imaging in an Incucyte S3 Live Cell imaging device to assess the efficacy of the itaconate-containing solutions in preserving each cell culture.
(§3) Four different itaconate molecules were tested, each in three different dosages and four replicates: underivatized itaconic acid (ITA) at 5 mM, 7.5 mM, and 10 mM; pH-corrected itaconic acid (NaOH-ITA) at 5 mM, 7.5 mM, and 10 mM; dimethyl itaconate (DI) at 0.125 mM, 0.25 mM, and 0.5 mM; and 4-octyl itaconate (4OI) at 0.125 mM, 0.25 mM, and 0.5 mM. […] Upon switching to LPD, the four different itaconate molecules in the three different concentrations each were assessed and compared to regular LPD (positive control) and standard media (negative control) during cold static preservation. Four replicates for each condition were used.
FIG. 5D illustrates the cell confluence results of the in vitro phase. T=0 represents the cell confluence reached before the 18-hour period of cold ischemia described with respect to FIG. 5A. Cells were cultured until subconfluence (shown at t=4 h in FIG. 5D), followed by cold ischemia from t=4 h to t=22 h. T=22 h represents the beginning of warm reperfusion as described with respect to FIG. 5A.

[2] = tested on: Human BEAS-2B bronchial epithelial cells; assay: BEAS-2B cold ischemia-reperfusion injury model: cell morphology; assay type: cell-based
Description: as §1, §2, §3
For example, FIG. 6B illustrates the cell morphology of cells exposed to i) LPD (positive control), ii) DMEM (negative control), iii) ITA 10 mM, iv) DI 0.25 mM, and v) 4OI 0.25 mM following cold ischemia. FIG. 6C illustrates the cell morphology of these groups at reperfusion at t=22 h. […] The cells cultured in DMEM (the negative control) died during cold ischemia and were washed away during reperfusion, as shown by a comparison of FIG. 6B to FIG. 6C.

[3] = tested on: Human BEAS-2B bronchial epithelial cells; assay: BEAS-2B cold ischemia-reperfusion injury model: apoptosis (Caspase3/7 dye); assay type: cell-based; details: immediately upon reperfusion, p<0.001
Description: as §1
This was followed by up to 48 h of warm reperfusion at 37° C. in regular cell culture media (at 5% CO2). Regular cell media was used as negative control for the simulated cold ischemia, and regular LPD was used as positive control. Upon switching to LPD, the four different itaconate derivatives in the three different concentrations were assessed and compared to regular LPD and standard media during cold static preservation. […]
as §3, with “Four replicates for each condition were used.” left out

[4] = tested on: Human bronchiole epithelial cells (BEAS2B); assay: Intracellular free ferrous iron (FerroOrange) after cold storage; assay type: cell-based; details: LPD + 0.25 mM DI vs LPD alone; 24 h at 10° C.; p<0.001
Description: This example aimed to determine whether an organ preservation solution having 0.25 mM dimethyl itaconate (DI) could have anti-ferroptotic properties. Human bronchiole epithelial cells (BEAS2B) were cultured to sub-confluence in standard culture medium (DMEM+10% fetal bovine serum) at 37° C. Upon reaching sub-confluence, the culture medium was aspirated completely, and cells were washed twice with phosphate-buffered saline (PBS) before adding cooled LPD or LPD supplemented with DI at a concentration of 0.25 mM. Cells were then placed in a 10° C. refrigeration unit for 24 hours. […] To measure intracellular iron between treatment groups after storage for 24 h at 10° C., FerroOrange, a fluorescent probe for free ferrous ions (Fe2+), was used according to the manufacturer's protocol (Dojindo Molecular Laboratories, MD, USA).
A […] FerroOrange solution was prepared in serum-free DMEM. Cells were washed with serum-free DMEM three times before being exposed to FerroOrange solution. The plate was then stored at 37° C. for 30 minutes. Fluorescence was quantified with a Cytation microplate reader (BioTek, VT, USA), with the top reading mode at an excitation wavelength of 543 nm and emission wavelength of 580 nm.

[5] = tested on: pig lungs; assay: Porcine ex vivo lung perfusion (EVLP) model of lung transplantation: lung physiology; parameters: species or system Yorkshire pigs
Description: (§4) Lungs were surgically harvested from Yorkshire pigs weighing 31-38 kg. The dimethyl itaconate (DI) 0.25 mM solution was selected for testing in vivo due to positive performance in vitro. The lungs were randomized to be flushed with a flush solution of Low Potassium Dextran (LPD) in two groups, with or without 0.25 mM dimethyl itaconate (DI) (n=4 pairs of lungs per group). For flushing, 2 L of flush solution were administered antegrade, and […] was administered retrograde prior to lung static preservation. Retrograde flush solution was collected in a sterile bag and used to coat the lungs during the preservation period. When appropriate (based on assigned randomization), DI was added to all 3 L of flush solution. Surgical teams were blinded to the intervention.
(§5) Still referring to FIG. 5C, lungs were subsequently preserved at 4° C. for an extended period of 36 h, then reperfused on EVLP for 6 h. EVLP allows lungs to be ventilated, reperfused to normothermia, and evaluated in an extracorporeal platform. EVLP performance was measured because it strongly correlates with post-transplant, recipient performance. Multiple physiological parameters of lung function were measured, and perfusate and tissue biopsies were collected. The measured physiological parameters included plateau airway pressure, change in partial pressure of oxygen delta PO2 (left atrium PO2—pulmonary artery PO2), static compliance, pulmonary vascular resistance (PVR), total perfusate loss, and wet to dry (W/D) ratios.
(§6) Statistical analysis was performed with GraphPad prism 9.0 (GraphPad Software, San Diego, CA). Two-way repeated measures ANOVA with Dunn's post-test based on the distribution of data and Mann-Whitney test were used for comparison between groups, when appropriate. Values are presented as mean±SEM unless stated otherwise, and p values <0.05 are considered statistically significant.

[6] = tested on: inflammatory cytokines in both tissue and perfusate; assay: Porcine EVLP model: cytokine analysis of lung tissue and perfusate; assay type: in vivo, Yorkshire pigs; details: DI 0.25 mM flush vs control
Description: as §4, §5, §6

C=C(CC(=O)OCCCCCCCC)C(=O)O [4OI, 4-octyl itaconate]
cell confluence compared to standard LPD alone or DI ([1]; 4OI in LPD, 18 h cold ischemia, reperfusion): did not perform favorably | cell morphology ([2]; 0.25 mM and 0.5 mM 4OI in LPD, 18 h cold ischemia at 4° C., reperfusion): morphological cell injury to a lower extent

C=C(CC(=O)O)C(=O)O [NaOH-ITA, itaconic acid]
apoptosis counts compared to positive controls ([3]; higher concentrations of NaOH-ITA): elevated apoptosis counts | cell morphology ([2]; higher concentrations of NaOH-ITA in LPD, after 18 h cold ischemia at 4° C.): presented morphological changes

C=C(CC(=O)O)C(=O)O [ITA, itaconic acid]
apoptosis counts compared to positive controls ([3]; ITA in LPD): elevated apoptosis counts | confluence over reperfusion ([1]; ITA in LPD, over 48 hours of reperfusion at 37° C.): stable confluence | cell morphology ([2]; ITA in LPD (10 mM shown), 18 h cold ischemia at 4° C., 50% O2, compared to LPD): cell shrinkage, nuclear pyknosis (condensation), and start of karyorrhexis (fragmentation), consistent with irreversible cell injury

C=C(CC(=O)OC)C(=O)OC [DI, dimethyl itaconate]
confluence ranking among tested solutions ([1]; DI 0.125 mM): highest confluence | confluence, mean percent difference compared to standard LPD alone ([1]; DI 0.125 mM, CI 2.0-13.7, p<0.01): 7.84% | confluence ranking among tested solutions ([1]; DI 0.25 mM): highest confluence | confluence, mean percent difference compared to standard LPD alone ([1]; DI 0.25 mM, CI 12.34-0.14, p<0.05): 6.24% | confluence compared to positive control (LPD) ([1]; after 24 h of reperfusion, p<0.001): differences remained favoring DI | intracellular iron (FerroOrange fluorescence) [4]: significantly reduced amount of intracellular iron | areas of edema on dorsal lung surface ([5]; flush LPD with 0.25 mM DI vs LPD, 36 h at 4° C., after 6 h of perfusion): more pronounced in the control group when compared to the DI group | plateau airway pressures ([5]; flush LPD+DI 0.25 mM vs LPD, 36 h at 4° C., 6 h EVLP, p<0.0001): lower | delta PO2 (left atrium PO2—pulmonary artery PO2) ([5]; flush LPD+DI 0.25 mM vs LPD, 36 h at 4° C., 6 h EVLP, p<0.01): higher | static compliances ([5]; flush LPD+DI 0.25 mM vs LPD, 36 h at 4° C., 6 h EVLP, p<0.05): higher | total perfusate loss ([5]; flush LPD+DI 0.25 mM vs control, 6 h EVLP, not statistically significant): trend toward reduced total perfusate loss | wet-to-dry ratios ([5]; flush LPD+DI 0.25 mM vs control, trend, not statistically significant): reduced wet-to-dry ratios | IL-6 expression levels in the perfusate ([6]; after 6 hours, p<0.05): significantly reduced | IL-8 expression levels in the perfusate ([6]; after 6 hours, p<0.05): reduced IL-8 expression levels | perfusate expression of TNF-α ([6]; after 6 hours, p<0.05): significantly reduced perfusate expression of TNF-α | IL-10 expression levels in the perfusate ([6]; after 6 hours, p<0.05 (FIG. 5M)): reduced IL-10 expression levels | tissue IL-8 expression ([6]; lung tissue, p<0.0001): reduced tissue IL-8 expression | cellular morphology ([2]; DI in LPD, 18 h cold ischemia at 4° C., reperfusion (FIG. 6D)): did not indicate any signs of shrinkage, pyknosis, or karyorrhexis
